Reference: ChEMBL document CHEMBL4665856, “Design and synthesis of new disubstituted benzoxazolone derivatives that act as iNOS inhibitors with potent anti-inflammatory activity against LPS-induced acute lung injury (ALI)” (Bioorg Med Chem, 2020)
Activity calls are given as the source filed them. No cut-off for these calls is given here.

Experiments:
Mus musculus [1] = assay: (§1) Anti-inflammatory activity against LPS-induced ALI Kunming mouse model assessed as reduction in IL-6 level in serum at 3.125 to 12.5 mg/kg, po administered 4 hrs prior to LPS instillation and measured at 12 hrs post-LPS instillation by ELISA; type: functional, organism-based; conditions: dose mg/kg 3.125-12.5, time 16.0 hrs
[2] = target: T1, Nitric oxide synthase, inducible (Mus musculus, UniProt P29477); assay: Inhibition of iNOS in mouse RAW264.7 cells assessed as inhibition of LPS-induced nitric oxide overproduction incubated for 24 hrs by Griess assay; type: cell-based
T1 sequence (P29477 whole entry): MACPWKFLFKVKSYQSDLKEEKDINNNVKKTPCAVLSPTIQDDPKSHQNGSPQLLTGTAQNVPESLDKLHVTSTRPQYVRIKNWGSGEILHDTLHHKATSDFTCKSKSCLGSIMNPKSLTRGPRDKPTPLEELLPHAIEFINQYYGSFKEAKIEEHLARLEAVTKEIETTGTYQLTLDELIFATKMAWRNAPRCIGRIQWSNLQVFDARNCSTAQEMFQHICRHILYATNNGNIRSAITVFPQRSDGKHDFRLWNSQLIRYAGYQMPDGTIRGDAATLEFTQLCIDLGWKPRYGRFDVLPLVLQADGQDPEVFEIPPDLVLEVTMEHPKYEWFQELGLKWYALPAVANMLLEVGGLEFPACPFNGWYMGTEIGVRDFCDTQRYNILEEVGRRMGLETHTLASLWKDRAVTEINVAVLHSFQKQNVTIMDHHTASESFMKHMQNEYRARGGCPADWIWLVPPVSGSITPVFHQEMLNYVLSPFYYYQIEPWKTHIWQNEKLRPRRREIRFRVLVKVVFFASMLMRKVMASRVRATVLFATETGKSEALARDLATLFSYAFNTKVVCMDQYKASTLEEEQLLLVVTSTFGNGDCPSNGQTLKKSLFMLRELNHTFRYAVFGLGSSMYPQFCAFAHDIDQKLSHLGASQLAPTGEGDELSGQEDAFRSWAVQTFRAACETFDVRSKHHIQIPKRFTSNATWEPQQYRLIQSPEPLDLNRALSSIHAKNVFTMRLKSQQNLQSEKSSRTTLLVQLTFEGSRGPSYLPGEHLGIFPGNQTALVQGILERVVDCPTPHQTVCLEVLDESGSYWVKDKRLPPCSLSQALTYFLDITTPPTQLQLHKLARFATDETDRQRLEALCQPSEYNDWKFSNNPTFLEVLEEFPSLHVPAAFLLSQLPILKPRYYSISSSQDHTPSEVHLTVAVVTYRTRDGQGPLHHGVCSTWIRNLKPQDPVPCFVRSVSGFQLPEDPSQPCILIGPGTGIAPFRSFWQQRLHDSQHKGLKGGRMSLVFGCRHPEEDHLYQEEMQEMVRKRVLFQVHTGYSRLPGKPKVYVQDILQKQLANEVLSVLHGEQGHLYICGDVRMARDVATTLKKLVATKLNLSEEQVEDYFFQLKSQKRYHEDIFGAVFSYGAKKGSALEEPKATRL

RAW264.7 [3] = assay: Antiinflammatory activity in mouse RAW264.7 cells assessed as reduction in LPS-induced IL-1 beta production at 12.5 uM measured after 24 hrs by ELISA; type: functional, cell-based
Mus musculus [4] = assay: Anti-inflammatory activity against LPS-induced ALI Kunming mouse model assessed as reduction in IL-1 beta level in serum at 3.125 to 12.5 mg/kg, po administered 4 hrs prior to LPS instillation and measured at 12 hrs post-LPS instillation by ELISA; type: functional, organism-based; conditions: dose mg/kg 3.125-12.5, time 16.0 hrs
Mus musculus [5] = assay: Anti-inflammatory activity against LPS-induced ALI Kunming mouse model assessed as reduction in iNOS level in serum at 3.125 to 12.5 mg/kg, po administered 4 hrs prior to LPS instillation and measured at 12 hrs post-LPS instillation by ELISA; type: functional, organism-based; conditions: dose mg/kg 3.125-12.5, time 16.0 hrs
Mus musculus [6] = assay: Anti-inflammatory activity in Kunming mouse assessed as inhibition of xylene-induced ear edema at 12.5 mg/kg, po dosed 1 hr prior to xylene challenge and measured at 30 mins post xylene injection relative to control; type: functional; conditions: 1.5 h, time 90 min
RAW264.7 [7] = assay: Antiinflammatory activity in mouse RAW264.7 cells assessed as reduction in LPS-induced IL-6 production at 12.5 uM measured after 24 hrs by ELISA; type: functional, cell-based
Mus musculus [8] = assay: Anti-inflammatory activity against LPS-induced ALI Kunming mouse model assessed as reduction in iNOS expression in lung at 3.125 to 12.5 mg/kg, po administered 4 hrs prior to LPS instillation and measured at 12 hrs post-LPS instillation by immunohistochemistry; type: functional, organism-based; conditions: dose mg/kg 3.125-12.5, time 16.0 hrs
RAW264.7 [9] = assay: Anti-inflammatory activity in mouse RAW264.7 cells assessed as inhibition of LPS-induced nitric oxide synthase production measured after 24 hrs by ELISA; type: functional, cell-based; conditions: RAW264.7, 24 h
Mus musculus [10] = assay: as §1, with “inflammatory infiltration” for “IL-6 level”, “lungs and pulmonary congestion” for “serum”, “hematoxylin-eosin staining based analysis” for “ELISA”; type: functional, organism-based; conditions: dose mg/kg 3.125-12.5, time 16.0 hrs
RAW264.7 [11] = assay: Antiinflammatory activity in mouse RAW264.7 cells assessed as reduction in LPS-induced TNF-alpha production at 12.5 uM measured after 24 hrs by ELISA; type: functional, cell-based
RAW264.7 [12] = assay: Anti-inflammatory activity in mouse RAW264.7 cells assessed as reduction in LPS-induced iNOS mRNA expression at 12.5 uM by RT-PCR analysis; type: functional, cell-based
RAW264.7 [13] = assay: Cytotoxicity against mouse RAW 264.7 cells assessed as reduction in cell proliferation at 25 uM by MTT assay; type: cell-based; conditions: raw264.7, 25 µM
Mus musculus [14] = assay: Anti-inflammatory activity against LPS-induced ALI Kunming mouse model assessed as reduction in TNF-alpha level in serum at 3.125 to 12.5 mg/kg, po administered 4 hrs prior to LPS instillation and measured at 12 hrs post-LPS instillation by ELISA; type: functional, organism-based; conditions: dose mg/kg 3.125-12.5, time 16.0 hrs
Mus musculus [15] = assay: Anti-inflammatory activity against LPS-induced ALI Kunming mouse model assessed as reduction in neutrophil infiltration in lungs by measuring decrease in MPO activity at 3.125 to 12.5 mg/kg, po administered 4 hrs prior to LPS instillation and measured at 12 hrs post-LPS instillation; type: functional, organism-based; conditions: dose mg/kg 3.125-12.5, time 16.0 hrs
Mus musculus [16] = assay: Anti-inflammatory activity against LPS-induced ALI Kunming mouse model assessed as reduction in lung edema by measuring reduction in lung wet-to-dry ratio at 3.125 to 12.5 mg/kg, po administered 4 hrs prior to LPS instillation and measured at 12 hrs post-LPS instillation; type: functional, organism-based; conditions: dose mg/kg 3.125-12.5, time 16.0 hrs
Mus musculus [17] = species on record: Mus musculus; conditions: Kunming, dose 12.5 mg/kg, time 90.0 min

Row | SMILES | IC50 [2] | Activity (RAW264.7 [3]) | inhibition in vivo at 12.5 mg/kg (Mus musculus [6]) | Activity (RAW264.7 [7]) | IC50 (RAW264.7 [9]) | Activity (RAW264.7 [11]) | Activity (RAW264.7 [13]) | further results
1 | CN(C)c1cccc2c(S(=O)(=O)Oc3cccc4oc(=O)n(CCc5ccccc5)c34)cccc12 | 14.7 µM | Active | > 50% | Active | 3.34 µM | Active | Non-Toxic | Activity (Mus musculus [1]): Dose-dependent effect; Activity (Mus musculus [4]): Dose-dependent effect; Activity (Mus musculus [5]): Dose-dependent effect; Activity (Mus musculus [8]): Dose-dependent effect; Activity (Mus musculus [10]): Dose-dependent effect; Activity (RAW264.7 [12]): Active; Activity (Mus musculus [14]): Dose-dependent effect; Activity (Mus musculus [15]): Dose-dependent effect; Activity (Mus musculus [16]): Dose-dependent effect
2 | Cn1cnc(S(=O)(=O)Oc2cccc3oc(=O)n(Cc4ccccc4)c23)c1 | – | Active | > 50% | Active | – | Active | Non-Toxic | –
3 | N=C(NCCC[C@H](N)C(=O)O)N[N+](=O)[O-] [NITROARGININE] | 27.6 µM | – | – | – | 2.92 µM | – | – | inhibition (Mus musculus [17]): Active
4 | Cn1cnc(S(=O)(=O)Oc2cccc3oc(=O)n(Cc4ccc([N+](=O)[O-])cc4)c23)c1 | – | – | – | – | – | – | Non-Toxic | –
5 | CN(C)c1cccc2c(S(=O)(=O)Oc3cccc4oc(=O)n(Cc5ccccc5)c34)cccc12 | 16.4 µM | Active | > 50% | Active | 4.61 µM | Active | Non-Toxic | –
6 | Cc1ccc(Cn2c(=O)oc3cccc(OS(=O)(=O)c4cn(C)cn4)c32)cc1 | – | – | – | – | – | – | Non-Toxic | –
7 | Cc1ccccc1S(=O)(=O)Oc1cccc2oc(=O)n(CCc3ccccc3)c12 | – | – | – | – | – | – | Non-Toxic | –
8 | Cn1cnc(S(=O)(=O)Oc2cccc3oc(=O)n(CCc4ccccc4)c23)c1 | 13.4 µM | Active | > 50% | Active | 9.73 µM | Active | Non-Toxic | –
